In patent publication US12060333B2 (Hoffmann-La Roche Inc., priority 2021, dated 2024):
Like-named read-outs stand apart in the source and are kept apart here.

Molecular target: SARS-CoV-2 3CLpro (Severe acute respiratory syndrome coronavirus 2, UniProt P0DTD1)
Experiment: biochemical
[1] = read-out: IC50 (μM), SARS-CoV-2 3CLPro assay
[2] = IC50 (μM), SARS-CoV-2 3CLPro assay

Compound: CC(C)C[C@H](NC(=O)OCc1ccccc1)C(=O)NN(CCC(N)=O)C(=O)C(F)Cl (stereo partly drawn) [Example 17, Benzyl N-[(1S)-1-[[(3-amino-3-oxo-propyl)-(2-chloro-2-fluoro-acetyl)amino]carbamoyl]-3-methyl-butyl]carbamate]
- IC50 [1]: 0.09 µM

Compound: Cc1cc(C(=O)N[C@@H](CC2CC2)C(=O)NN(CCC(N)=O)C(=O)C(F)Cl)no1 (mixture of isomers) [Example 75, 5-Methyl-N-[rac-(1S)-2-[2-(3-amino-3-oxo-propyl)-2-(2-chloro-2-fluoro-acetyl)hydrazino]-1-(cyclopropylmethyl)-2-axo-ethyl]isoxazole-3-carboxamide]
- IC50 [2]: 0.32 µM

Compound: NC(=O)CCN(NC(=O)[C@H](CC12CC(C1)C2)NC(=O)c1nc2ccccc2[nH]1)C(=O)C(F)Cl (mixture of isomers) [Example 67, N-[rac-(1S)-2-[2-(3-amino-3-oxo-propyl)-2-(2-chloro-2-fluoro-acetyl)hydrazino]-1-(1-bicyclo[1.1.1]pentanylmethyl)-2-axo-ethyl]-1H-benzimidazole-2-carboxamide]
- IC50 [2]: 0.023 µM

Compound: Cc1cc(C(=O)N[C@@H](CC2CCCCC2)C(=O)NN(CCC(N)=O)C(=O)C(F)Cl)no1 (mixture of isomers) [Example 74, 5-Methyl-N-[rac-(1S)-2-[2-(3-amino-3-oxo-propyl)-2-(2-chloro-2-fluoro-acetyl)hydrazino]-1-(cyclohexylmethyl)-2-axo-ethyl]isoxazole-3-carboxamide]
- IC50 [2]: 0.028 µM

Compound: CC(C)C[C@H](NC(=O)c1cc2cc(F)ccc2[nH]1)C(=O)NN(CCC(N)=O)C(=O)[C@@H](F)Cl (racemic) [Example 57-A, 5-fluoro-N-[rac-(1S)-1-[[(3-amino-3-oxo-propyl)-[rac-(2S)-2-chloro-2-fluoro-acetyl]amino]carbamoyl]-3-methyl-butyl]-1H-indole-2-carboxamide]
- IC50 [2]: 0.067 µM

Compound: CC(C)C[C@@H](C(=O)NN(CCC(N)=O)C(=O)CCl)N(C)C(=O)c1cc2ccccc2[nH]1 [Example 40, N-[(1S)-1-[[(3-Amino-3-axo-propyl)-(2-chloroacetyl)amino]carbamoyl]-3-methyl-butyl]-N-methyl-1H-indole-2-carboxamide]
- IC50 [1]: 0.007 µM

Compound: NC(=O)CCN(NC(=O)[C@H](CC1CCCCC1)NC(=O)c1cn2ccccc2n1)C(=O)C(F)Cl (mixture of isomers) [Example 82, N-[rac-(1S)-2-[2-(3-amino-3-oxo-propyl)-2-(2-chloro-2-fluoro-acetyl)hydrazino]-1-(cyclohexylmethyl)-2-axo-ethyl]imidazo[1,2-a]pyridine-2-carboxamide]
- IC50 [2]: 0.043 µM

Compound: NC(=O)CCN(NC(=O)[C@H](CC1CCC1)NC(=O)c1cnccn1)C(=O)C(F)Cl (mixture of isomers) [Example 79, N-[rac-(1S)-2-[2-(3-amino-3-oxo-propyl)-2-(2-chloro-2-fluoro-acetyl)hydrazino]-1-(cyclobutylmethyl)-2-axo-ethyl]pyrazine-2-carboxamide]
- IC50 [2]: 0.15 µM

Compound: NC(=O)CCN(NC(=O)[C@H](CC1CCCCC1)NC(=O)OCc1ccccc1)C(=O)CF [Example 15, Benzyl N-[(1S)-2-[2-(3-amino-3-oxo-propyl)-2-(2-fluoroacetyl)hydrazino]-1-(cyclohexylmethyl)-2-axo-ethyl]carbamate]
- IC50 [1]: 1.2 µM

Compound: COc1cc2cc(C(=O)N[C@@H](CC(C)C)C(=O)NN(CCC(N)=O)C(=O)C(F)Cl)[nH]c2cn1 (mixture of isomers) [Example 89, 5-methoxy-N-[rac-(1S)-1-[[(3-amino-3-axo-propyl)-(2-chloro-2-fluoro-acetyl)amino]carbamoyl]-3-methyl-butyl]-1H-pyrrolo[2,3-c]pyridine-2-carboxamide]
- IC50 [2]: 0.019 µM

Compound: CC(C)C[C@H](NC(=O)OCc1ccccc1)C(=O)NN(CCC(N)=O)C(=O)[C@@H](F)Cl (single isomer, unassigned) [Example 17-A]
- IC50 [2]: 1.63 µM

Compound: CC(C)C[C@H](NC(=O)c1cc2cnccc2[nH]1)C(=O)NN(CCC(N)=O)C(=O)CCl [Example 52, N-[(1S)-1-[[(3-amino-3-oxo-propyl)-(2-chloroacetyl)amino]carbamoyl]-3-methyl-butyl]-1H-pyrrolo[3,2-c]pyridine-2-carboxamide]
- IC50 [1]: 0.014 µM

Compound: CC(C)C[C@H](NC(=O)OCc1ccccc1)C(=O)NN(Cc1cc[nH]n1)C(=O)CCl [Example 23, Benzyl N-[(1S)-1-[[(2-chloroacetyl)-(1H-pyrazol-3-ylmethyl)amino]carbamoyl]-3-methyl-butyl]carbamate]
- IC50 [1]: 0.034 µM

Compound: CC(C)C[C@H](NC(=O)c1cc2cc(F)ccc2[nH]1)C(=O)NN(CCC(N)=O)C(=O)[C@H](F)Cl (racemic) [Example 57-B, 5-fluoro-N-[rac-(1S)-1-[[(3-amino-3-oxo-propyl)-[rac-(2R)-2-chloro-2-fluoro-acetyl]amino]carbamoyl]-3-methyl-butyl]-1H-indole-2-carboxamide]
- IC50 [2]: 0.01 µM

Compound: NC(=O)CCN(NC(=O)[C@H](CC1CC1)NC(=O)c1cc2ccccc2[nH]1)C(=O)C(F)Cl (mixture of isomers) [Example 62, N-[rac-(1S)-2-[2-(3-amino-3-oxo-propyl)-2-(2-chloro-2-fluoro-acetyl)hydrazino]-1-(cyclopropylmethyl)-2-axo-ethyl]-1H-indole-2-carboxamide]
- IC50 [2]: 0.017 µM

Compound: COc1cccc2[nH]c(C(=O)N[C@@H](CC3CCCCC3)C(=O)NN(CCC(N)=O)C(=O)CF)cc12 [Example 37, N-[(1S)-2-[2-(3-Amino-3-axo-propyl)-2-(2-fluoroacetyl)hydrazino]-1-(cyclohexylmethyl)-2-axo-ethyl]-4-methoxy-1H-indole-2-carboxamide]
- IC50 [1]: 0.038 µM

Compound: CC(C)C[C@H](NC(=O)OC(C)(C)C)C(=O)NN(CCC(N)=O)C(=O)CCl [Example 26, tert-Butyl N-[(1S)-1-[[(3-amino-3-oxo-propyl)-(2-chloroacetyl)amino]carbamoyl]-3-methyl-butyl]carbamate]
- IC50 [1]: 0.67 µM

Compound: CC(C)C[C@H](NC(=O)c1cc2c(Cl)cccc2[nH]1)C(=O)NN(CCC(N)=O)C(=O)[C@H](F)Cl (single isomer, unassigned) [Example 53-B]
- IC50 [2]: 0.025 µM

Compound: CC(C)C[C@H](NC(=O)c1ncc[nH]1)C(=O)NN(CCC(N)=O)C(=O)C(F)Cl (mixture of isomers) [Example 96, N-[rac-(1S)-1-[[(3-amino-3-oxo-propyl)-(2-chloro-2-fluoro-acetyl)amino]carbamoyl]-3-methyl-butyl]-1H-imidazole-2-carboxamide]
- IC50 [2]: 0.66 µM

Compound: CC(C)C[C@H](NC(=O)c1nc2cc(Cl)ccc2[nH]1)C(=O)NN(CCC(N)=O)C(=O)[C@@H](F)Cl (racemic) [Example 60-A, 5-chloro-N-[rac-(1S)-1-[[(3-amino-3-axo-propyl)-[rac-(2S)-2-chloro-2-fluoro-acetyl]amino]carbamoyl]-3-methyl-butyl]-1H-benzimidazole-2-carboxamide]
- IC50 [2]: 0.008 µM

Compound: N-[(1S)-1-[[(3-amino-3-oxo-propyl)-[(2R)-2-chloro-2-fluoro-acetyl]amino]carbamoyl]-3-methyl-butyl]-1H-pyrrolo[2,3-c]pyridine-2-carboxamide and N-[(1S)-1-[[(3-amino-3-oxo-propyl)-[(2S)-2-chloro-2-fluoro-acetyl]amino]carbamoyl]-3-methyl-butyl]-1H-pyrrolo[2,3-c]pyridine-2-carboxamide [Example 88]
- IC50 [1]: 0.013 µM

Compound: CC(C)C[C@H](NC(=O)OCc1ccccc1)C(=O)NN(CCC(N)=O)C(=O)CCl [Example 2, Benzyl N-[(1S)-1-[[(3-amino-3-oxo-propyl)-(2-chloroacetyl)amino]carbamoyl]-3-methyl-butyl]carbamate]
- IC50 [1]: 0.017 µM

Compound: CC(C)C[C@H](NC(=O)c1cc2ccccn2n1)C(=O)NN(CCC(N)=O)C(=O)C(F)Cl (mixture of isomers) [Example 90, N,N-[rac-(1S)-1-[[(3-amino-3-oxo-propyl)-(2-chloro-2-fluoro-acetyl)amino]carbamoyl]-3-methyl-butyl]pyrazolo[1,5-a]pyridine-2-carboxamide]
- IC50 [1]: 0.073 µM

Compound: CC(C)C[C@H](NC(=O)c1cc2ncccc2[nH]1)C(=O)NN(CCC(N)=O)C(=O)C(F)Cl (stereo partly drawn) [Example 91, N-[(1S)-1-[[(3-amino-3-oxo-propyl)-(2-chloro-2-fluoro-acetyl)amino]carbamoyl]-3-methyl-butyl]-1H-pyrrolo[3,2-b]pyridine-2-carboxamide]
- IC50 [1]: 0.038 µM

Compound: CC(C)C[C@H](NC(=O)c1cc2cccnc2[nH]1)C(=O)NN(CCC(N)=O)C(=O)CCl [Example 44, N-[(1S)-1-[[(3-Amino-3-oxo-propyl)-(2-chloroacetyl)amino]carbamoyl]-3-methyl-butyl]-1H-pyrrolo[2,3-b]pyridine-2-carboxamide]
- IC50 [1]: 0.017 µM

Compound: Cc1nc(C(=O)N[C@@H](CC(C)C)C(=O)NN(CCC(N)=O)C(=O)CCl)co1 [Example 45, N-[(1S)-1-[[(3-Amino-3-oxo-propyl)-(2-chloroacetyl)amino]carbamoyl]-3-methyl-butyl]-2-methyl-oxazole-4-carboxamide]
- IC50 [1]: 0.046 µM

Compound: COc1cccc(NCC(=O)N[C@@H](CC(C)C)C(=O)NN(CCC(N)=O)C(=O)[C@@H](F)Cl)c1 (single isomer, unassigned) [Example 83-B]
- IC50 [2]: 0.06 µM

Compound: CC(C)(C)C[C@H](NC(=O)c1cnccn1)C(=O)NN(CCC(N)=O)C(=O)C(F)Cl (stereo partly drawn) [Example 78, N-[rac-(1S)-1-[[(3-amino-3-oxo-propyl)-(2-chloro-2-fluoro-acetyl)amino]carbamoyl]-3,3-dimethyl-butyl]pyrazine-2-carboxamide]
- IC50 [2]: 0.25 µM

Compound: CC(C)CC(NC(=O)c1cn2ccccc2n1)C(=O)NN(CCC(N)=O)C(=O)C(F)Cl (racemic) [Example 95, N-[rac-(1S)-1-[[(3-amino-3-oxo-propyl)-(2-chloro-2-fluoro-acetyl)amino]carbamoyl]-3-methyl-butyl]imidazo[1,2-a]pyridine-2-carboxamide]
- IC50 [2]: 0.65 µM

Compound: CC(C)C[C@H](NC(=O)c1nc2ccccc2[nH]1)C(=O)NN(CCC(N)=O)C(=O)[C@H](F)Cl (single isomer, unassigned) [Example 63-B]
- IC50 [2]: 0.007 µM

Compound: CNC(=O)CCN(NC(=O)[C@H](CC(C)C)N(C)C(=O)c1cc2ccccc2[nH]1)C(=O)CCl [Example 50, N-[(1S)-1-[[(2-Chloroacetyl)-[3-(methylamino)-3-oxo-propyl]amino]carbamoyl]-3-methyl-butyl]-N-methyl-1H-indole-2-carboxamide]
- IC50 [1]: 0.074 µM
